Test results: patent US20090176817A1, “Method of Treatment of Diarrhea-Predominant Irritable Bowel Syndrome in a Subject” (priority 2005, published 2009)
Where two headings read alike, the source gives them in different places.

Experiments:
[1] = Study S.241.1.104: Ortho Tri-Cyclen pharmacokinetics with cilansetron 2 mg TID; type: in vivo, human; conditions: for Cmin / Cmax / AUC / half-life: arith. mean; for AUC: read-out: AUC(0-τ); for half-life: read-out: T½ (converted)
From the text: The effects of concomitant administration of cilansetron and a commonly used oral contraceptive, Ortho Tri-Cyclen (ORC), on the pharmacokinetics and pharmacodynamics of ORC and the pharmacokinetics of cilansetron has been evaluated in a randomized, double-blind, placebo-controlled, multiple-dose, 2-period, crossover study in 20 healthy, female subjects, aged 19 to 42 years. Subjects received the following two treatments during each of two 28-day study periods (2 ORC cycles) in a randomized, crossover fashion: Treatment B (reference treatment)−ORC on Days 1-28 (standard ORC cycle)+placebo TID on Days 14-20 and a single dose of placebo on Day 21; Treatment A (test treatment)−ORC on Days 1-28 (standard ORC cycle)+cilansetron 2 mg TID on Days 14-20 and a single dose of cilansetron 2 mg on Day 21. […] For evaluation of the effect of concomitant cilansetron on the pharamacodynamics of ORC, blood samples were collected prior to morning dosing on Days 18, 19, 20, 26, 27, and 28 for measurement of serum progesterone (PG), luteinizing hormone (LH), and follicle stimulating hormone (FSH) concentrations, and untransformed data were compared statistically between treatments.

[2] = system: CYP3A4 (cilansetron metabolism); assay: in vitro; conditions: human, human hepatic microsomes, probe cilansetron (100 μM), overall metabolism
[3] = system: cilansetron metabolism (ketoconazole 25 μM used as general inhibitor); assay: in vitro; conditions: human, human hepatic microsomes, probe cilansetron (100 μM), overall metabolism
[4] = system: CYP3A4 (formation of 4-hydroxy metabolites of cilansetron); assay: in vitro; conditions: human, human hepatic microsomes, probe cilansetron (100 μM), formation of the 4-hydroxy metabolites
[5] = system: patients with malignant tumors; assay: Study S.241.2.101: cisplatin-induced nausea and vomiting; type: in vivo, human; conditions: IV 8 mg TID
Description: (§1) The effect of cilansetron on nausea and vomiting has been studied in 2 clinical studies in cancer patients. Both studies were randomized, singleblind, positive-controlled, parallel-group, pilot studies in male and female patients with malignant tumors, to investigate the effect of cilansetron on cytostatic-induced nausea and vomiting. In both studies, patients were on their first cycle of chemotherapy and were being treated with cisplatin (275 mg/m2 as a single dose in Study S.24 1.2.10 1 and […] for 5 days in Study K.24 1 S O 17). Patients in Study S.24 1.2.10 1 were aged 40-74 years (ITT population=16) and patients in Study K.24 1 S O 17 were aged 39-74 years (ITT population=19). In both studies, patients were randomized to receive either […] or IV ondansetron 8 mg TID for 1 day (Study S.241.2.101) or 5 days (Study K.2415017), corresponding to the day(s) of their cisplatin administration. If nausea and vomiting were completely controlled on a treatment day, the second and/or third doses of cilansetron or ondansetron could be omitted on that day. The primary efficacy parameter in both studies was the combination of the occurrence of vomiting and the severity of nausea, with a responder being defined as a patient with no vomiting and not more than mild nausea during the treatment day(s). […]

[6] = system: patients with malignant tumors; assay: Study K.241.5017: cisplatin-induced nausea and vomiting; type: in vivo, human; conditions: IV 8 mg TID
Description: as §1

[7] = female, human, plasma, oral, ORC + Cilansetron 2 mg TID, Day 21
[8] = female, human, plasma, oral, ORC + Placebo, Day 21

SMILES: C#C[C@]1(O)CC[C@H]2[C@@H]3CCc4cc(O)ccc4[C@H]3CC[C@@]21C [EE, ethinyl estradiol]
- Cmin ([1]; ORC + Cilansetron 2 mg TID, Day 21): 0.022 ng/mL
- Cmin ([1]; ORC + Placebo, Day 21): 0.024 ng/mL
- Cmax [1, 7]: 0.144 ng/mL
- AUC [1, 7]: 1.21 ng·h/mL
- half-life [1, 7]: 20.9 h
- Tmax ([1]; female, human, plasma, oral, ORC + Cilansetron 2 mg TID, Day 21, median): 1.25 h
- Cmax [1, 8]: 0.156 ng/mL
- AUC [1, 8]: 1.32 ng·h/mL
- half-life [1, 8]: 21.2 h
- Mean AUC(0-τ) decrease with concomitant cilansetron ([1]; in vivo): 10%
- Mean Cmax decrease with concomitant cilansetron ([1]; in vivo): 8%

SMILES: CC(=O)N1CCN(c2ccc(OCC3COC(Cn4ccnc4)(c4ccc(Cl)cc4Cl)O3)cc2)CC1 (stereo not shown) [ketoconazole]
- inhibition at 1 μM [2]: ~70%
- inhibition at 25 μM [3]: 93%
- inhibition at 1 μM [4]: 47%

SMILES: Cc1nccn1CC1CCc2c(c3ccccc3n2C)C1=O (stereo not shown) [ondansetron, reference compound]
- Response rate [5]: 25.0%
- Response rate [6]: 60.0%
